± gives the expanded uncertainty stated by the source.
How the values were obtained:
[1] = Liquid
[2] = refractive index (Na D-line) (dimensionless); details: 298.15 K; 101.33 kPa; Liquid; Standard Abbe refractometry

vapor or sublimation pressure ([1]; 291.95 K) [kPa]	vapor or sublimation pressure ([1]; 295.15 K) [kPa]	vapor or sublimation pressure ([1]; 299.35 K) [kPa]	vapor or sublimation pressure ([1]; 307.05 K) [kPa]	vapor or sublimation pressure ([1]; 310.45 K) [kPa]	vapor or sublimation pressure ([1]; 316.75 K) [kPa]	SMILES	vapor or sublimation pressure ([1]; 298.15 K) [kPa]	vapor or sublimation pressure ([1]; 303.15 K) [kPa]	vapor or sublimation pressure ([1]; 308.15 K) [kPa]	vapor or sublimation pressure ([1]; 313.15 K) [kPa]	refractive index [2]	vapor or sublimation pressure ([1]; 292.85 K) [kPa]	vapor or sublimation pressure ([1]; 295.55 K) [kPa]	vapor or sublimation pressure ([1]; 302.35 K) [kPa]	vapor or sublimation pressure ([1]; 306.25 K) [kPa]	vapor or sublimation pressure ([1]; 309.95 K) [kPa]	vapor or sublimation pressure ([1]; 313.65 K) [kPa]
–	–	–	–	–	–	CC(Cl)(Cl)Cl [1,1,1-trichloroethane]	16.69 ± 0.35	20.34 ± 0.41	25.22 ± 0.49	30.78 ± 0.57	1.4354 ± 0.0007	–	–	–	–	–	–
–	–	–	–	–	–	ClCCCl [1,2-dichloroethane]	10.47 ± 0.25	13.34 ± 0.91	16.77 ± 1.1	20.88 ± 1.3	1.4421 ± 0.0007	8.09 ± 0.21	9.23 ± 0.23	12.81 ± 0.29	15.46 ± 0.33	18.17 ± 0.37	21.29 ± 0.42
1.16 ± 0.1	1.5 ± 0.1	1.65 ± 0.11	2.6 ± 0.12	3 ± 0.13	4.03 ± 0.14	O=C1CCCC1 [cyclopentanone]	1.61 ± 0.33	2.03 ± 0.11	2.68 ± 0.38	3.41 ± 0.13	1.4347 ± 0.0007	–	–	–	–	–	–

— the NIST ThermoML archive (doi:10.1016/j.jct.2005.07.016)
